Assays:
[1] = tested on: post-Amadori AGE formation, BSA Amadori intermediate; assay: Interrupted (post-Amadori) ribose glycation assay, BSA; type: biochemical, bovine; settings: 24 h in 0.5 M ribose, then free ribose removed, 37° C.
Protocol: (§1) ELISA detection of AGE products. The general method of Engvall (1981, Methods Enzymol. 70:419-439) was used to perform the ELISA. Typically, glycated protein samples were diluted to approximately 1.5 ug/ml in 0.1 M sodium carbonate buffer of pH 9.5 to 9.7. The protein was coated overnight at room temperature onto 96-well polystyrene plates by pippetting 200 ul of the protein solution in each well (0.3 ug/well). After coating, the protein was washed from the wells with a saline solution containing 0.05% Tween-20. The wells were then blocked with 200 ul of 1% casein in carbonate buffer for 2 h at 37° C. followed by washing. Rabbit anti-AGE antibodies were diluted at a titer of about 1:350 in incubation buffer, and incubated for 1 h at 37° C., followed by washing. In order to minimize background readings, antibodies R479 used to detect glycated RNase were raised against glycated BSA, and antibodies R618 used to detect glycated BSA and glycated Hb were raised against glycated RNase. An alkaline phosphatase-conjugated antibody to rabbit IgG was then added as the secondary antibody at a titer of 1:2000 or 1:2500 (depending on lot) and incubated for 1 h at 37° C., followed by washing. The p-nitrophenylphosphate substrate solution was then added (200 ul/well) to the plates, with the absorbance of the released p-nitrophenolate being monitored at 410 nm with a Dynatech MR 4000 microplate reader.
Glycation was first carried out by incubating protein (10 mg/ml) with 0.5 M ribose at 37° C. in 0.4 M phosphate buffer at pH 7.5 containing 0.2% sodium azide for 24 h in the absence of inhibitors. Glycation was then interrupted to remove excess and reversibly bound (Schiff base) sugar by extensive dialysis against frequent cold buffer changes at 4° C. The glycated intermediate samples containing maximal amount of Amadori product and little AGE (depending on protein) were then quickly warmed to 37° C. without re-addition of ribose. This initiated conversion of Amadori intermediates to AGE products in the absence or presence of various concentrations (typically 3, 15 and 50 mM) of prospective inhibitors. Aliquots were taken and frozen at various intervals for later analysis. The solutions were kept in capped tubes and opened only to remove timed aliquots that were immediately frozen for later carrying out the various analyses.

[2] = tested on: AGE formation in bovine serum albumin (BSA); assay: Uninterrupted glycation of BSA with glucose, anti-AGE ELISA; type: biochemical; settings: BSA 10 mg/ml, 1.0 M glucose, pH 7.5, 37° C., 6 weeks; inhibitors 3, 15 and 50 mM
Protocol: (§2) Uninterrupted Glycation with Glucose Bovine serum albumin, ribonuclease A, and human hemoglobin were incubated with glucose at 37° C. in 0.4 M sodium phosphate buffer of pH 7.5 containing 0.02% sodium azide. The protein, glucose (at 1.0 M), and prospective inhibitors (at 0.5, 3, 15 and 50 mM) were introduced into the incubation mixture simultaneously. Solutions were kept in the dark in capped tubes. Aliquots were taken and immediately frozen until analyzed by ELISA at the conclusion of the reaction. The incubations were for 3 weeks (Hb) or 6 weeks (RNase, BSA).
as §1
FIGS. 1 A-D are graphs which show the effect of vitamin B6 derivatives on post-Amadori AGE formation in bovine serum albumin glycated with glucose. BSA (10 mg/ml) was incubated with 1.0 M glucose in the presence and absence of the various indicated derivative in 0.4 M sodium phosphate buffer of pH 7.5 at 37° C. for 6 weeks. Aliquots were assayed by ELISA using R618 anti-AGE antibodies. Concentrations of the inhibitors were 3, 15 and 50 mM. Inhibitors used in FIGS. (1A) Pyridoxamine (PM); (1B) pyridoxal phosphate (PLP); (1C) pyridoxal (PL); (1D) pyridoxine (PN).
FIGS. 2A-D are graphs which show the effect of vitamin B1 derivatives and aminoguanidine (AG) on AGE formation in bovine serum albumin. BSA (10 mg/ml) was incubated with 1.0 M glucose in the presence and absence of the various indicated derivative in 0.4 M sodium phosphate buffer of pH 7.5 at 37° C. for 6 weeks. Aliquots were assayed by ELISA using R618 anti-AGE antibodies. Concentrations of the inhibitors were 3, 15 and 50 mM. Inhibitors used in FIGS. (2A) Thiamine pyrophosphate (TPP); (2B) thiamine monophosphate (TP); (2C) thiamine (T); (2D) aminoguanidine (AG).

[3] = tested on: AGE formation during uninterrupted glycation of ribonuclease A (RNase A) by ribose; assay: Uninterrupted ribose glycation assay, RNase; type: biochemical, bovine; settings: continuous 0.05 M ribose, 6 weeks, inhibitors 0.5-50 mM
Protocol: as §1
as §2, with “ribose glycation assays” for “Glycation with Glucose”, “ribose” for “glucose”, “protein (10 mg/ml or 1 mg/ml), 0.05 M ribose,” for “protein, glucose (at 1.0 M),”, “BSA). Glycation reactions were monitored for constant pH throughout the duration of the experiments.” for “BSA).”
The inhibitory effects of vitamin B1 and B6 derivatives on the kinetics of antigenic AGE formation were evaluated by polyclonal antibodies specific for AGEs. Initial inhibition studies were carried out on the glycation of bovine ribonuclease A (RNase) in the continuous presence of 0.05 M ribose, which is the concentration of ribose where the rate of AGE formation is near maximal.

[4] = tested on: AGE formation during uninterrupted glycation of bovine serum albumin (BSA) by ribose; assay: Uninterrupted ribose glycation assay, BSA; type: biochemical; settings: 0.05 M ribose, 6 weeks, inhibitors 0.5-50 mM
Protocol: as §1
as §2, with “ribose glycation assays” for “Glycation with Glucose”, “ribose” for “glucose”, “protein (10 mg/ml or 1 mg/ml), 0.05 M ribose,” for “protein, glucose (at 1.0 M),”, “BSA). Glycation reactions were monitored for constant pH throughout the duration of the experiments.” for “BSA).”

ribose-treated rats = assay: Ribose rat model, intervention by compounds (Phase III); type: in vivo; settings: 1 M ribose alone, 8 days
Protocol: Sixty rats were randomized into 9 different groups, including those exposed to 1 M ribose for 8 days in the presence and absence of aminoguanidine, pyridoxamine, and thiamine pyrophosphate as follows:
(ii) high dose (250 mg/kg body weight) of pyridoxamine (“compound-P”);
(iii) high dose (250 mg/kg body weight of thiamine pyrophosphate (“compound-T” or “TPP”); and
(iv) low dose (25 mg/kg body weight) of aminoguanidine (“AG”).
(i) only 1 M ribose-saline (2×9 cc daily IP for 8 days);
(ii) ribose plus low dose (“LP”) of pyridoxamine (25 mg/kg body weight injected as 0.5 ml with 9 cc ribose);
(iii) ribose plus high dose (“HP”) of pyridoxamine (250 mg/kg body weight injected as 0.5 ml with 9 cc ribose);
(iv) ribose plus high dose (“HT”) of thiamine pyrophosphate (250 mg/kg body weight injected as 0.5 ml with 9 cc ribose); and
(v) ribose plus low dose of amino guanidine (25 mg/kg body weight injected as 0.5 ml with 9 cc ribose).
Unlike Phase II, no ribose was administered in drinking water. Intervention compounds were pre-administered for one day prior to introducing them with ribose.

[5] = tested on: post-Amadori AGE formation, RNase Amadori intermediate; assay: Interrupted (post-Amadori) ribose glycation assay, RNase; type: biochemical, bovine; settings: RNase, 24 h in 0.5 M ribose, then free ribose removed, 37° C.
Protocol: as §1
Glycation Modifications Modification with ribose or glucose was generally done at 37° C. in 0.4 M phosphate buffer of pH 7.5 containing 0.02% sodium azide. The high buffer concentration was always used with 0.5 M ribose modifications. The solutions were kept in capped tubes and opened only to remove timed aliquots that were immediately frozen for later carrying out the various analyses. “Interrupted glycation” experiments were carried out by first incubating protein with the ribose at 37° C. for 8 or 24 h, followed by immediate and extensive dialysis against frequent cold buffer changes at 4° C. The samples were then reincubated by quickly warming to 37° C. in the absence of external ribose. Aliquots were taken and frozen at various intervals for later analysis. Due to the low molecular weight of RNase, protein concentrations were remeasured after dialysis even when low molecular weight cut-off dialysis tubing was used. An alternative procedure was also devised (see below) in which interruption was achieved by simple 100-fold dilution from reaction mixtures containing 0.5 M ribose. Protein concentrations were estimated from UV spectra. The difference in molar extinction between the peak (278 nm) and trough (250 nm) was used for RNase concentration determinations in order to compensate for the general increase in UV absorbance that accompanies glycation. Time-dependent UV-difference spectral studies were carried out to characterize the glycation contributions of the UV spectrum. […]
Glycation was first carried out by incubating protein (10 mg/ml) with 0.5 M ribose at 37° C. in 0.4 M phosphate buffer at pH 7.5 containing 0.2% sodium azide for 24 h in the absence of inhibitors. Glycation was then interrupted to remove excess and reversibly bound (Schiff base) sugar by extensive dialysis against frequent cold buffer changes at 4° C.

rats = assay: Ribose administration to rats (Phase I and II), renal physiology; type: in vivo, rat
Protocol: Two groups of six rats each were given in one day either:
a. 300 mM ribose (two intraperitoneal infusions 6-8 hours apart, each 5% of body weight as ml); or
b. 50 mM ribose (one infusion)
Rats were then kept for 4 days with no further ribose administration, at which time they were sacrificed and the following physiological measurements were determined: (i) initial and final body weight; (ii) final stage kidney weight; (iii) initial and final tail-cuff blood pressure; (iv) creatinine clearance per 100 g body weight.
Groups of rats (3-6) were intraperitoneally given 0.3 M “low ribose dose” (LR) or 1.0 M “high ribose dose” (HR) by twice-daily injections for either (i) 1 day, (ii) a “short-term” (S) of 4 days, or (iii) a “long-term” (L) of 8 days. Additionally, these concentrations of ribose were included in drinking water.

[6] = Phase II: 0.3 M or 1.0 M ribose for 1, 4 or 8 days

Row | SMILES | inhibition of post-Amadori AGE formation [1] | inhibition of antigenic AGE formation (ELISA) [2] | inhibition of overall kinetics of AGE formation from ribose [3] | inhibition of overall kinetics of AGE formation from ribose [4] | Albumin effusion rate (AER) (ribose-treated rats) | inhibition of post-Amadori AGE formation [5] | Albumin effusion rate (AER) (rats; [6]) | creatinine clearance (rats; [6]) | tail-cuff blood pressure (rats; Phase II: 0.3 M or 1.0 M ribose twice daily IP for 1, 4 or 8 days, also in drinking water) | tail-cuff blood pressure (rats; high ribose (2×300 mM) in one day, measured 4 days later, from 66±4) | creatinine clearance (rats; high ribose (2×300 mM), normal range expected about 1.0-1.2) [cc per 100 g body weight] | tail-cuff blood pressure (rats; low ribose (1×50 mM) in one day, measured 4 days later, from 66±4) | creatinine clearance (rats; low ribose (1×50 mM), normal range expected about 1.0-1.2) [cc per 100 g body weight]
1 | Cc1ncc(CO)c(CO)c1O [pyridoxine] | did not produce any inhibition | slightly effective at the highest concentrations tested | moderately inhibited AGE formation on RNase | failed to inhibit AGE formation on BSA | – | – | – | – | – | – | – | – | –
2 | O=C[C@H](O)[C@H](O)[C@H](O)CO [ribose] | – | – | – | – | elevated | diminished by increasing ribose concentrations | increased significantly in a ribose-dependent manner at 1-day and 4-day exposures | decreased in all groups in a ribose dose-dependent and time-dependent manner | increased in all groups of ribose-treated rats | 106±5 | 0.62±0.13 | 83±3 | 0.87±0.15
3 | Cc1ncc(C[n+]2csc(CCOP(=O)(O)O)c2C)c(N)n1 [thiamine monophosphate] | showed some intermediate effect | not inhibitory | little effect on the rate of AGE formation, but a substantial decrease in the final level of AGE formed in the presence of the highest concentration of inhibitor | – | – | showed some intermediate effect | – | – | – | – | – | – | –
4 | Cc1ncc(C[n+]2csc(CCO)c2C)c(N)n1 [thiamine] | showed no effect | not inhibitory | little effect on the rate of AGE formation, but a substantial decrease in the final level of AGE formed in the presence of the highest concentration of inhibitor | inhibited the final levels of AGEs formed, without greatly affecting the rate of AGE formation | – | showed no effect | – | – | – | – | – | – | –

Reference: patent US6716858B1, “Methods for inhibiting diabetic complications” (Kansas University Medical Center, priority 1995, dated 2004)
